US11021445B2, “Carboxylic acid derivative as AT2R receptor antagonist” (SHANDONG DANHONG PHARMACEUTICAL CO., LTD., priority 2017, dated 2021)

Assay: Plasma protein binding rate (PPB) test, equilibrium dialysis
Assay type: in vitro ADME
Details: human, 37°C
Protocol: In vitro protein binding rates of 0.2 μM, 2 μM, 10 μM of test compounds with Sprague-Dawley rats, beagle dogs, human plasma were determined by equilibrium dialysis.
The experiment will use a 96-well equilibrium dialysis plate (HTDialysis device) to determine the plasma protein binding rate of the to-be-tested compound and the control compounds.
Prior to the start of the experiment, the dialysis membrane was pretreated according to the instructions for use and the dialysis unit was assembled as required.
Blank plasma was taken from CD-1 mice, Sprague-Dawley rats, Beagle dogs, cynomolgus monkeys and humans (an anticoagulant is EDTA-K2, which is a commercial product purchased, or is collected and prepared by the Drug Evaluation Department of Wuxi AppTech, and is stored in a refrigerator below −60° C. before use). A certain volume of the to-be-tested compound or the control compound working solution was added to prepare plasma samples of the compound to be tested at a concentration of 0.2, 2, 10 μM and plasma samples of the control compound at a concentration of 2 μM (n=1). The organic phase content was ≤1%. First, a certain volume of a plasma sample containing the to-be-tested compound and the control compound was taken out into the sample receiving plate as a sample at zero time (T0 sample, n=3); secondly, a plasma sample containing the to-be-tested compound and the control compound was added to one side of the dialysis membrane (plasma end, n=3), and a certain volume of dialysis buffer (buffer end, n=3) was added to the other side of the dialysis membrane; then the dialysis plate was placed in a humidified incubator with 5% CO2 for incubation for 4 hours at 37±1° C.
After the incubation, a certain volume of the dialyzed buffer sample (F sample) and the dialyzed plasma sample (T sample) were transferred to the sample receiving plate, and all samples were subjected to protein precipitation for LC/MS/MS analysis. And the dissociation rate of the compound (% Unbound) was calculated by the following formula: % Unbound=100*[F]/[T], % Bound=100−% Unbound. Wherein, % Unbound is the dissociation rate of the compound; % Bound is the binding rate of the compound; [F] is the concentration of the compound at the buffer end of the dialysis plate; [T] is the concentration of the compound at the plasma end of the dialysis plate; and the experimental results are shown in Table 7.

| SMILES | fraction unbound at 4 h |
| --- | --- |
| COc1ccc2c(c1OCc1ccccc1)C[C@@H](C(=O)O)N(C(=O)[C@@H](OC1(C)CCCC1)c1ccccc1)C2 [Compound 57] | 0.005 |
| COc1ccc2c(c1OCc1ccccc1)C[C@@H](C(=O)O)N(C(=O)[C@@H](OC1CC(F)(F)C1)c1ccccc1)C2 [Compound 51] | 0.007 |
| COc1ccc2c(c1OCc1ccccc1)C[C@@H](C(=O)O)N(C(=O)C(c1ccccc1)c1ccccc1)C2 [EMA-401, reference compound] | 0.002 |
| COc1ccc2c(c1OCc1ccccc1)C[C@@H](C(=O)O)N(C(=O)[C@@H](OC1CCCC1)c1ccccc1)C2 [Compound 37] | 0.004 |
| COc1ccc2c(c1OCc1ccccc1)C[C@@H](C(=O)O)N(C(=O)[C@@H](O[C@H]1CC[C@@H](O)CC1)c1ccccc1)C2 [Compound 63] | 0.016 |
